Data reported in paper PMC7043280 (European journal of medicinal chemistry, 2018).
Each block holds one molecule with its values, some of them ahead of it.

How the values were obtained:
NMDAR = conditions: cited from earlier work; for NMDAR agonist activity or effect on the holding current: ref Saptoka et al., 2017
[1] = tested on: GluN1/GluN2A-D diheteromeric NMDARs; assay: TEVC electrophysiology, values stated in the text across several GluN2 subtypes; format: cell-based, rat
GluN1/GluN2A NMDAR [2] = target: T1, GluN1/GluN2A NMDAR (Rattus norvegicus, UniProt P35439+Q00959); assay: TEVC electrophysiology on recombinant NMDA receptors; format: cell-based
[3] = tested on: GluN1/GluN2A-D diheteromeric NMDARs; conditions: cited from earlier work
GluN1/GluN2B NMDAR = GluN1/GluN2B NMDAR (Rattus norvegicus, UniProt P35439+Q00960); assay: TEVC electrophysiology on recombinant NMDA receptors; format: cell-based; conditions: for fold greater inhibitory activity on GluN2B compared to 7: from IC50 values, Table 6
GluN1/GluN2D NMDAR = GluN1/GluN2D NMDAR (Rattus norvegicus, UniProt P35439+Q62645); assay: as above; format: cell-based; conditions: for percentage maximum inhibition of the agonist response, GluN2D: value in parenthesis, ± s.e.m., L-glutamate 10 μM and glycine 10 μM
GluN1/GluN2C NMDAR = GluN1/GluN2C NMDAR (Rattus norvegicus, UniProt P35439+Q00961); assay: as above; format: cell-based; conditions: from IC50 values, Table 6
GluN1/GluN2A NMDAR [4] = target: T1, GluN1/GluN2A NMDAR; conditions: ref 7a; cited from earlier work

GluN1/GluN2D NMDAR, sequence (Q62645 28-1323, other chains not shown): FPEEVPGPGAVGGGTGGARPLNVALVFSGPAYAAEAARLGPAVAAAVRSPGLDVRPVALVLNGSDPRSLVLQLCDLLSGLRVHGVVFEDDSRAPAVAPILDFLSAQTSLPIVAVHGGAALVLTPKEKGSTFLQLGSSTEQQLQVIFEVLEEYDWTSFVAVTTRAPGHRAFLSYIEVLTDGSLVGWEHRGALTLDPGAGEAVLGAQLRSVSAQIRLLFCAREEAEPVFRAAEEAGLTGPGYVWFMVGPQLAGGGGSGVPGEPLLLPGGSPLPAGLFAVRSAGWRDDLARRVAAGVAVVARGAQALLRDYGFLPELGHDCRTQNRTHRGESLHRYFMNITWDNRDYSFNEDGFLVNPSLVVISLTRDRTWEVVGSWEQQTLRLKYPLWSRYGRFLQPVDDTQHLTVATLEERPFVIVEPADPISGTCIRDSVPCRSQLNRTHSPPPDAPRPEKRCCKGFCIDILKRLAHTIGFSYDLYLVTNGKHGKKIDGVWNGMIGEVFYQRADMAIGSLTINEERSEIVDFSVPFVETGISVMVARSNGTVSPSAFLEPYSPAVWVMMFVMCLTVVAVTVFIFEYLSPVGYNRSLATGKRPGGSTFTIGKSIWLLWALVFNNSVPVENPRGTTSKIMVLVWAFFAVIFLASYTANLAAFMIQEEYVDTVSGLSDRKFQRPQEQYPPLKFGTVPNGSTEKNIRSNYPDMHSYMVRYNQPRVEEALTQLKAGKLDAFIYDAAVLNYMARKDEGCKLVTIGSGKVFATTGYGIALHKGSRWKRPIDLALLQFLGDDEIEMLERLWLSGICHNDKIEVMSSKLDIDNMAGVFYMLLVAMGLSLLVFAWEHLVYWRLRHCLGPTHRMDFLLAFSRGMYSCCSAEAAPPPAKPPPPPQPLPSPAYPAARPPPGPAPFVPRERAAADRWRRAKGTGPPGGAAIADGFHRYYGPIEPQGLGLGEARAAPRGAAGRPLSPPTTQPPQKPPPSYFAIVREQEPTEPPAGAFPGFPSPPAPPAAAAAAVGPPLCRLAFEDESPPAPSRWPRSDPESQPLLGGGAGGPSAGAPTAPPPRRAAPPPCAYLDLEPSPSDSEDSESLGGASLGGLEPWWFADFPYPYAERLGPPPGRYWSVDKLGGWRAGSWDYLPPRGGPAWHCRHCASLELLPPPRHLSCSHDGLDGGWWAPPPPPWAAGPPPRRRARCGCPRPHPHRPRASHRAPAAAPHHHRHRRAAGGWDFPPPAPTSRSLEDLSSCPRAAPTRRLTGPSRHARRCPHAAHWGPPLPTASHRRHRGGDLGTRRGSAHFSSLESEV
T1 sequence (Q00959 23-1464, other chains not shown): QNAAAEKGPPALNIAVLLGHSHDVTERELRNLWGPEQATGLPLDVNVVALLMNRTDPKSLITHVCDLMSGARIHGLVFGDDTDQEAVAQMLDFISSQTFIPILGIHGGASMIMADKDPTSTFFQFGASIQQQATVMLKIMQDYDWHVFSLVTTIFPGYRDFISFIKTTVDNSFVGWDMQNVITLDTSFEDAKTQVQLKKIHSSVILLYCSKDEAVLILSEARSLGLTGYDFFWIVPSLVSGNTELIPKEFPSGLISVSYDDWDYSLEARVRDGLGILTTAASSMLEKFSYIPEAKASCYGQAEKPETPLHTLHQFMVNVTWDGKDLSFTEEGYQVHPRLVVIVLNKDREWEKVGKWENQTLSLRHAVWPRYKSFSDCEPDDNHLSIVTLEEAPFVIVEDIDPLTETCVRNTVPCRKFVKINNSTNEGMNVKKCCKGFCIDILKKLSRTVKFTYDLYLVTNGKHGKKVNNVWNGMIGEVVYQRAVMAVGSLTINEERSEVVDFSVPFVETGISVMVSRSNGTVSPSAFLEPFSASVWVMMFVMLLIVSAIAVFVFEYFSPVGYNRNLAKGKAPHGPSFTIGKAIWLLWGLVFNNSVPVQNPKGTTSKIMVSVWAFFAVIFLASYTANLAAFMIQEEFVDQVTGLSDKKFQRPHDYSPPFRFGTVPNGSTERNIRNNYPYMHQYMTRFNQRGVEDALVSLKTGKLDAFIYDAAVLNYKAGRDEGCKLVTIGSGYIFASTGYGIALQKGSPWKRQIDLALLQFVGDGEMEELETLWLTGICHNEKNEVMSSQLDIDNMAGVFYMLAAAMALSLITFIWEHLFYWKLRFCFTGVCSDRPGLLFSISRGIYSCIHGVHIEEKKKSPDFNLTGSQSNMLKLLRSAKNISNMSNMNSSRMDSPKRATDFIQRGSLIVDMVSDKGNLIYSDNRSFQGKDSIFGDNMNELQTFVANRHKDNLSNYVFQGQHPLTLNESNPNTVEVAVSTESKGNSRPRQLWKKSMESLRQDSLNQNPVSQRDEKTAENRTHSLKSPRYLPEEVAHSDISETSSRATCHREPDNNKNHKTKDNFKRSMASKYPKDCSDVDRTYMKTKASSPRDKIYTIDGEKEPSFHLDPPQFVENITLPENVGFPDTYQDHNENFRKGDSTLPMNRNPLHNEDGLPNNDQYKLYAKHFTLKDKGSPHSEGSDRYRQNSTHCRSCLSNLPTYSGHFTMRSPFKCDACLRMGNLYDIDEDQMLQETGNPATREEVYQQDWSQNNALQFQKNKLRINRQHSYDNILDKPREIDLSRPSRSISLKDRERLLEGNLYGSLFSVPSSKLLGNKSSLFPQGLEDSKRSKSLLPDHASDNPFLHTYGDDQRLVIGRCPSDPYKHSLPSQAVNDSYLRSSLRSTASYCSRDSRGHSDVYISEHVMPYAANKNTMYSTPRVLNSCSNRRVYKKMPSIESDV
GluN1/GluN2B NMDAR, sequence (Q00960 27-1482, other chains not shown): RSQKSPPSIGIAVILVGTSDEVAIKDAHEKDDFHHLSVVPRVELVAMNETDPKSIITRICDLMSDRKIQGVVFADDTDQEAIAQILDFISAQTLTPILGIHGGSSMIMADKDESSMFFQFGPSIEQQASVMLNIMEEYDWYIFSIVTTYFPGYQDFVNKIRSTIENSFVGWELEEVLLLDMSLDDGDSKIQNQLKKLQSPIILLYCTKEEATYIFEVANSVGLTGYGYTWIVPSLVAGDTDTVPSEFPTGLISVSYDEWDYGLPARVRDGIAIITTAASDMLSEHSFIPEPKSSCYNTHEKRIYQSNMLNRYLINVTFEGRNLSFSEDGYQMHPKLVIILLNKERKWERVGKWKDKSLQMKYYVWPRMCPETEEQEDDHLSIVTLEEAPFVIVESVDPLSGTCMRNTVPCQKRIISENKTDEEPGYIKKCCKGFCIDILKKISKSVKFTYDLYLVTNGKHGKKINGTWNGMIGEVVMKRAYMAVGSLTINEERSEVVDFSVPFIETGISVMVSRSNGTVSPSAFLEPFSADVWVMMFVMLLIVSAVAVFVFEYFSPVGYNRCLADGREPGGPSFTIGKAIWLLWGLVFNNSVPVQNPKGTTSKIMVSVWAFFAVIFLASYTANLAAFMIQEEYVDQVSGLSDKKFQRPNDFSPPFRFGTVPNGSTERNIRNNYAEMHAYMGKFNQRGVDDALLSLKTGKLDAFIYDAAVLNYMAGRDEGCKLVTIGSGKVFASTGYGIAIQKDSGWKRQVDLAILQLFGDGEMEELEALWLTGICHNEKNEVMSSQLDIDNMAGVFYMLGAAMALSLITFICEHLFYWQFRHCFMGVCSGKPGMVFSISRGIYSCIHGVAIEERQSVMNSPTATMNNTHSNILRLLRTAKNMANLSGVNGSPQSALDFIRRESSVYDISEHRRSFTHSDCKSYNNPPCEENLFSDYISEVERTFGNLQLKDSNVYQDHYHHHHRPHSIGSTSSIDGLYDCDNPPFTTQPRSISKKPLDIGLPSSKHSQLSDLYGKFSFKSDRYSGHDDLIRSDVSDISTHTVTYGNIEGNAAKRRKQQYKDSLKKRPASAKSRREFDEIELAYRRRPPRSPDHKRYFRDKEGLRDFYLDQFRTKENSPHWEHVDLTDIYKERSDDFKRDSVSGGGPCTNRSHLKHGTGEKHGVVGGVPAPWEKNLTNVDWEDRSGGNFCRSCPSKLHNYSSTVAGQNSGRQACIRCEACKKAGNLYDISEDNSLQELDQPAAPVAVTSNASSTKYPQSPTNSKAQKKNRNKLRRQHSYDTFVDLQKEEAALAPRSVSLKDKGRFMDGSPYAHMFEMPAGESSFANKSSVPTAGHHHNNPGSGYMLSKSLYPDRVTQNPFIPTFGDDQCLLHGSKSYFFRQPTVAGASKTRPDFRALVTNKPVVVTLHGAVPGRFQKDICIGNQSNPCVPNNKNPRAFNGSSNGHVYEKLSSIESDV

SMILES: CC(C)CCC(C)c1ccc2cc(C(=O)O)ccc2c1 (racemic) [Compound 46, (RS)-6-(5-Methylhexan-2-yl)-2-naphthoic acid]
NMDAR agonist activity or effect on the holding current (NMDAR): no NMDAR agonist activity or effect on the holding current

SMILES: CCc1ccc2cc(C(=O)O)ccc2c1 [6-ethyl derivative]
percentage inhibition on GluN2A-D ([1]; 100 μM, range over GluN2A-D): 17–52%

inhibition at 100 µM (GluN1/GluN2A NMDAR [2]; read-out: inhibition of the agonist response on GluN2A): 26 ± 2%
SMILES: O=C(O)c1ccc2cc(I)ccc2c1 [6-iodo-2-naphthoic acid]
inhibitory activity on GluN2B-D ([1]; 100 μM, range over GluN2B-D): 9–12%

SMILES: CCCc1ccc2cc(C(=O)O)ccc2c1 [6-n-propyl derivative]
percentage inhibition on GluN2A-D ([1]; 100 μM, range over GluN2A-D): 0–14%

SMILES: O=C(O)c1ccc2cc(I)c3ccccc3c2c1 [Compound 1, reference compound]
glutamate-site or glycine-site NMDAR agonist activity; activity in the absence of agonists (NMDAR): did not display glutamate-site or glycine-site NMDAR agonist activity

SMILES: O=C(O)c1cc2cc(-c3ccccc3)ccc2cc1O [Compound 7, reference compound]
glutamate-site or glycine-site NMDAR agonist activity; activity in the absence of agonists (NMDAR): did not display glutamate-site or glycine-site NMDAR agonist activity
maximal inhibition of GluN2A and GluN2B [3]: 57–72%

EC50 ([1]; read-out: EC50 values across GluN2A-D, range over GluN2A-D): 28 to 37.2 µM
SMILES: CC(C)CCCc1ccc2cc(C(=O)O)ccc2c1 [Compound 14b, 6-(4-Methylpent-1-yl)-2-naphthoic acid]
NMDAR agonist activity or effect on the holding current (NMDAR): no NMDAR agonist activity or effect on the holding current
potentiation across GluN2A-D ([1]; 100 μM): > 170%

SMILES: CCCCCc1ccc2cc(CC(=O)O)ccc2c1 [Compound 21, (6-n-Pent-1-ylnaphthalen-2-yl)acetic acid]
inhibition on at least one of the GluN1/GluN2 subtypes ([1]; 100 μM): ≥ 50%

SMILES: CCCCOc1ccc2cc(C(=O)O)ccc2c1 [Compound 24, 6-Butoxy-2-naphthoic acid]
inhibition on at least one of the GluN1/GluN2 subtypes ([1]; 100 μM): ≥ 50%

SMILES: CC(C)CNC(=O)c1ccc2cc(C(=O)O)ccc2c1 [Compound 52, 6-(Isobutylcarbamoyl)-2-naphthoic acid]
inhibition on at least one of the GluN1/GluN2 subtypes ([1]; 100 μM): ≥ 50%

SMILES: CC(C)C(=O)OCc1ccc2cc(C(=O)O)ccc2c1 [Compound 54, 6-((Isobutyryloxy)methyl)-2-naphthoic acid]
inhibition on at least one of the GluN1/GluN2 subtypes ([1]; 100 μM): ≥ 50%

SMILES: CC(C)COCc1ccc2cc(C(=O)O)ccc2c1 [Compound 57, 6-(Isobutoxymethyl)-2-naphthoic acid]
inhibition on at least one of the GluN1/GluN2 subtypes ([1]; 100 μM): ≥ 50%

fold greater inhibitory activity on GluN2B compared to 7 (GluN1/GluN2B NMDAR): ~ 10 fold
SMILES: O=C(O)c1cc2cc(/C=C/c3ccccc3)ccc2cc1O [Compound 79a, (E)-3-Hydroxy-7-styryl-2-naphthoic acid]
fold greater inhibitory activity on GluN2C and GluN2D compared to 7 ([1]; GluN2C and GluN2D, from IC50 values, Table 6): 3–5 fold
maximal inhibition across GluN2A-D ([1]; range over GluN2A-D): 83–94%

percentage maximum inhibition of the agonist response, GluN2D (GluN1/GluN2D NMDAR): 70–80%
fold lower IC50 on GluN2A and GluN2D compared to 79a ([1]; GluN2A and GluN2D): 3 fold
percentage maximum inhibition of the agonist response, GluN2A (GluN1/GluN2A NMDAR [2]; value in parenthesis, ± s.e.m., L-glutamate 10 μM and glycine 10 μM): 30%
fold higher IC50 on GluN2B compared to 79a (GluN1/GluN2B NMDAR): 4 fold
SMILES: O=C(O)c1cc2cc(/C=C/c3ccccc3[N+](=O)[O-])ccc2cc1O [Compound 79h, (E)-3-Hydroxy-7-(2-nitrostyryl)-2-naphthoic acid]
maximal inhibition of GluN2B-D ([1]; range over GluN2B-D): 60–80%

fold higher inhibitory activity on GluN2C compared to 7 (GluN1/GluN2C NMDAR): 5 fold
fold higher inhibitory activity on GluN2D compared to 7 (GluN1/GluN2D NMDAR; from IC50 values, Table 6): 35 fold
percentage maximum inhibition of the agonist response, GluN2D (GluN1/GluN2D NMDAR): 70–80%
fold greater inhibitory activity on GluN2B compared to 7 (GluN1/GluN2B NMDAR): 10 fold
SMILES: O=C(O)c1cc2cc(/C=C/c3cccc([N+](=O)[O-])c3)ccc2cc1O [Compound 79i, (E)-3-Hydroxy-7-(3-nitrostyryl)-2-naphthoic acid]

SMILES: O=C(O)c1cc2cc(Br)ccc2oc1=O [UBP608]
selectivity for GluN2A over GluN2D (GluN1/GluN2A NMDAR [4]): 23 fold
